Assay results from US20090239887A1, “Method of resolution and antiviral activity of 1,3-oxathiolane nucleoside enantiomers” (Emory University, priority 1990, published 2009).
Read-outs that look alike come from different tables or passages of the source.

Test system: HIV-1 (strain LAV)
Experiment: microbe, parasite or virus in culture
Assay type: cell-based
Conditions: for EC50: read-out: EC50
Excerpt: It is often desirable to screen a number of racemic mixtures of nucleosides as a preliminary step to determine which warrant further resolution into enantiomerically enriched components and evaluation of antiviral activity. The ability of nucleosides to inhibit HIV can be measured by various experimental techniques. The technique used herein, and described in detail below, measures the inhibition of viral replication in phytohemagglutinin (PHA) stimulated human peripheral blood mononuclear (PBM) cells infected with HIV-1 (strain LAV). The amount of virus produced is determined by measuring the virus-coded reverse transcriptase enzyme. The amount of enzyme produced is proportional to the amount of virus produced.
A. Three-day-old phytohemagglutinin-stimulated PBM cells (10^6 cells/ml) from hepatitis B and HIV-1 seronegative healthy donors were infected with HIV-1 (strain LAV) at a concentration of about 100 times the 50% tissue culture infectious dose (TICD 50) per ml and cultured in the presence and absence of various concentrations of antiviral compounds.
B. Approximately one hour after infection, the medium, with the compound to be tested (2 times the final concentration in medium) or without compound, was added to the flasks (5 ml; final volume 10 ml). AZT was used as a positive control.
C. The cells were exposed to the virus (about 2×10^5 dpm/ml, as determined by reverse transcriptase assay) and then placed in a CO2 incubator. HIV-1 (strain LAV) was obtained from the Center for Disease Control, Atlanta, Ga. The methods used for culturing the PBM cells, harvesting the virus and determining the reverse transcriptase activity were those described by McDougal et al. (J. Immun. Meth. 76, 171-183, 1985) and Spira et al. (J. Clin. Meth. 25, 97-99, 1987), except that fungizone was not included in the medium (see Schinazi, et al., Antimicrob. Agents Chemother. 32, 1784-1787 (1988); Id., 34:1061-1067 (1990)).
D. On day 6, the cells and supernatant were transferred to a 15 ml tube and centrifuged at about 900 g for 10 minutes. Five ml of supernatant were removed and the virus was concentrated by centrifugation at 40,000 rpm for 30 minutes (Beckman 70.1 Ti rotor). The solubilized virus pellet was processed for determination of the levels of reverse transcriptase. Results are expressed in dpm/ml of sampled supernatant. Virus from smaller volumes of supernatant (1 ml) can also be concentrated by centrifugation prior to solubilization and determination of reverse transcriptase levels.

[1] = Human immunodeficiency virus 1, PBMC, comparison nucleosides, source not stated
[2] = human PBM cells infected with HIV-1, enantiomers isolated by chiral HPLC (Example 3)

Work on `[N-]=[N+]=N[C@H]1C[C@H](n2ccc(=O)[nH]c2=O)O[C@@H]1CO` [AZDU, 3′-azido-2′,3′-dideoxyuridine, reference compound] yielded an EC50 [1] of 180 to 460 nM.

With `Nc1ccn(C2CSC(CO)O2)c(=O)n1` (stereo not drawn) [BCH-189 (+), 2-hydroxymethyl-5-(cytosin-1-yl)-1,3-oxathiolane] the DPM/ml (0.00085 μM) was 71,795 DPM/ml, the DPM/ml (0.00425 μM) was 99,710 DPM/ml and the DPM/ml (0.0085 μM) was 68,355 DPM/ml. The DPM/ml (0.0415 μM) was 82,845 DPM/ml, the DPM/ml (0.0825 μM) was 65,100 DPM/ml and the DPM/ml (0.412 μM) was 43,260 DPM/ml. It also gave an inhibition at 0.00085 µM (Human immunodeficiency virus 1, PBMC, 0.00085 μM, read-out: % Inhibition (Corrected)) of 28.7%, an inhibition at 0.00425 µM (Human immunodeficiency virus 1, PBMC, 0.00425 μM, read-out: % Inhibition (Corrected)) of -2.1% and an inhibition at 0.0085 µM (Human immunodeficiency virus 1, PBMC, 0.0085 μM, read-out: % Inhibition (Corrected)) of 32.5%. It also gave an inhibition at 0.0415 µM (Human immunodeficiency virus 1, PBMC, 0.0415 μM, read-out: % Inhibition (Corrected)) of 16.5%, an inhibition at 0.0825 µM (Human immunodeficiency virus 1, PBMC, 0.0825 μM, read-out: % Inhibition (Corrected)) of 36.1% and an inhibition at 0.412 µM (Human immunodeficiency virus 1, PBMC, 0.412 μM, read-out: % Inhibition (Corrected)) of 60.3%. For the same compound, the EC50 [2] was 230 nM.

In the case of `Nc1ccn(C2CSC(CO)O2)c(=O)n1` (stereo not drawn) [BCH-189 (−), 2-hydroxymethyl-5-(cytosin-1-yl)-1,3-oxathiolane], the DPM/ml (0.001 μM) is reported as 76,400 DPM/ml, the DPM/ml (0.005 μM) is reported as 66,875 DPM/ml and the DPM/ml (0.01 μM) is reported as 54,170 DPM/ml. The DPM/ml (0.05 μM) was 57,615 DPM/ml, the DPM/ml (0.1 μM) was 34,705 DPM/ml and the DPM/ml (0.5 μM) was 15,250 DPM/ml. For the same compound, the inhibition at 0.001 µM (Human immunodeficiency virus 1, PBMC, 0.001 μM, read-out: % Inhibition (Corrected)) was 23.6%, the inhibition at 0.005 µM (Human immunodeficiency virus 1, PBMC, 0.005 μM, read-out: % Inhibition (Corrected)) was 34.2% and the inhibition at 0.01 µM (Human immunodeficiency virus 1, PBMC, 0.01 μM, read-out: % Inhibition (Corrected)) was 48.2%. It also gave an inhibition at 0.05 µM (Human immunodeficiency virus 1, PBMC, 0.05 μM, read-out: % Inhibition (Corrected)) of 44.4%, an inhibition at 0.1 µM (Human immunodeficiency virus 1, PBMC, 0.1 μM, read-out: % Inhibition (Corrected)) of 69.7% and an inhibition at 0.5 µM (Human immunodeficiency virus 1, PBMC, 0.5 μM, read-out: % Inhibition (Corrected)) of 91.2%. It also gave an EC50 [2] of 16 nM.

With `Nc1ncnc2c1ncn2[C@H]1CC[C@@H](CO)O1` [DDA, 2′,3′-dideoxyadenosine, reference compound] the EC50 [1] was 910 nM.

Work on `Nc1ccn([C@H]2CC[C@@H](CO)O2)c(=O)n1` [DDC, dideoxycytidine, reference compound] yielded an EC50 [1] of 11 nM.

Work on `Cc1cn([C@H]2CC[C@@H](CO)O2)c(=O)[nH]c1=O` [DDT, 3′-dideoxythymidine, reference compound] yielded an EC50 (comparison nucleosides, source not stated) of 170 nM.
